Patent US10086030B2, “Use of composition in preparing health care products or medicines for preventing and treating allergic diseases” (JIANGZHONG PHARMACEUTICAL CO., LTD., priority 2012, dated 2018)
Several values for one entry are separate records, joined by “and”; a condition that tells them apart may be missing. Identical values can stand only once.

Experiments:
[1] = test system: allergic asthma in rats caused by OVA; experiment: Allergic asthma in rats caused by OVA: latent period of asthma, serum IL-4 and IFN-γ, EOS content in lung tissues; assay type: in vivo, SD rats
From the text: Rats (half thereof were male and the other half female) were randomly divided into two groups, i.e., a blank control group of 10 animals and a modeling group of 70 animals. After a successful modeling, the rats were randomly divided into the following groups: a model control group, a positive drug group (dexamethasone group), and groups on the low, medium, and high doses of Composition 3, with 10 animals in each group.
On day 1, all animals except those in the blank control group were sensitized by intraperitoneal injection with 1 ml suspension containing 10 mg OVA, 200 mg Al(OH)3 dry powder, and 6×10^9 inactivated pertussis vaccines in physiological saline, and were sensitized once again on day 8.
The daily intake of the test drug Composition 3 composite powder recommended for one person was 24 g crude drug/60 kg body weight. On the basis thereof, the calculated daily intake for a rat was: low dose group: 1.0 g crude drug/kg body weight; medium dose group: 2.0 g crude drug/kg body weight; high dose group: 6.0 g crude drug/kg body weight, which were 2.5, 5 and 15 times the daily intake for a human, respectively. […] The volume of intragastric administration was calculated as 1.0 ml/100 g body weight. The model control group was intragastrically given an equivalent volume of 0.9% physiological saline 30 minutes before challenging; and the positive drug group was given dexamethasone at a dose of 0.5 mg/kg 30 min before each challenging^[2]. The groups on the low, medium and high doses of Composition 3 were each intragastrically given the respective dose of the test drug 30 min before each challenging. […]
A ZH-100 respiratory transducer was tied around the thoracic cage of each rat (the tension was adjusted to about 1 to 2 g so that the amplitude of the respiratory wave was 1 to 2 my). […] The acquisition system was turned on and a segment of normal respiratory wave was recorded. Then ultrasonic atomization with 1% OVA was applied for 20 min, and the respiratory waves of induced asthma in the rats were continuously recorded over 30 min after the atomization was initiated. Meanwhile, the period from the beginning of atomization to occurrence of symptoms (indicated by the first twitch) was visually observed and recorded as the latent period of asthma.
24 h after the final challenge, the rats were anaesthetized by intraperitoneal injection with 3% sodium pentobarbital (30 mg/kg). 5 to 10 ml blood was drawn, and serum IL-4 and IFN-γ levels were measured by ELISA.
The left lung tissues were cut off and fixed in 4% polyformaldehyde for 4 to 5 h, then washed with water, dehydrated with an alcohol gradient, and immersed and embedded in paraffine. HE staining was performed with a successive sectioning process, inflammatory changes in the tissues were observed, and EOS infiltration was counted. For each section, 10 fields were randomly chosen under a microscope at high magnification (×400) by the same observer, and the numbers of EOS infiltration around bronchus and vessels were calculated and averaged as the representative value for this section.
The daily intake of the test drug Composition 4 composite powder recommended for one person was 24 g crude drug/60 kg body weight. On the basis thereof, the calculated daily intake for a rat was: low dose group: 1.0 g crude drug/kg body weight; medium dose group: 2.0 g crude drug/kg body weight; high dose group: 6.0 g crude drug/kg body weight, which were 2.5, 5 and 15 times the daily intake for a human, respectively.

[2] = test system: allergic asthma in guinea pigs caused by a mixed gas of Ach and His; experiment: Allergic asthma in guinea pigs caused by a mixed gas of Ach and His: latent period, total IgE in serum and BALF, EOS content in lung tissues; assay type: in vivo; conditions: for latent period of asthma, Before dosing: before dosing (baseline)
Method: 2.2 Effect on Allergic Asthma in Guinea Pigs Caused by a Mixed Gas of Ach and his
On day 1, guinea pigs were placed in a closed 4 L glass bell jar, into which a 1:1 mixture solution of 2% Ach and 0.4% His was sprayed by ultrasonic atomization for 15 s. After completion of spraying, the latent period of asthma induced in the guinea pigs was recorded (i.e., the period from the end of the spraying to asthmatic onsets, extreme difficulty in breathing till twitching and falling down). Animals having a latent period of asthma longer than 120 s were excluded.
Dual-antibody sandwich radioimmunoassay was employed.

[3] = test system: allergic asthma in rats caused by OVA; experiment: Allergic asthma in rats caused by OVA: latent period of asthma, serum IL-4 and IFN-γ, EOS content in lung tissues; assay type: in vivo, SD rats; conditions: dexamethasone 0.5 mg/kg; for latent period of asthma, Before dosing: before dosing (baseline)
[4] = baseline, positive control group (dexamethasone 0.5 mg/kg)
[5] = positive control dexamethasone 0.5 mg/kg, 21 days
[6] = dexamethasone 0.5 mg/kg, Composition 6 study
[7] = dexamethasone 0.5 mg/kg, Composition 7 study
[8] = dexamethasone 0.5 mg/kg, Composition 5 study

C[C@@H]1C[C@H]2[C@@H]3CCC4=CC(=O)C=C[C@]4(C)[C@@]3(F)[C@@H](O)C[C@]2(C)[C@@]1(O)C(=O)CO [dexamethasone]
latent period of asthma induced, Before dosing [1, 4]: 75.84 ± 12.36 and 74.66 ± 11.09 and 74.64 ± 11.03
latent period of asthma induced, After dosing ([1]; positive control dexamethasone 0.5 mg/kg 30 min before each challenge, 21 days): 162.61 ± 17.88^ΔΔ and 159.77 ± 20.28^ΔΔ and 160.21 ± 20.32^ΔΔ
EOS content in lung tissues [1, 5]: 27.51 ± 4.31^ΔΔ cells/HP and 28.39 ± 4.26^ΔΔ cells/HP and 28.42 ± 4.24^ΔΔ cells/HP
serum IFN-γ [1, 5]: 20.51 ± 4.65^ΔΔ pg/ml and 20.26 ± 4.86^ΔΔ pg/ml and 20.27 ± 4.88^ΔΔ pg/ml
serum IL-4 [1, 5]: 12.88 ± 4.13^ΔΔ pg/ml and 13.51 ± 4.31^ΔΔ pg/ml and 13.50 ± 4.28^ΔΔ pg/ml
total IgE in BALF ([2]; BALF, positive control group, 0.5 mg/kg): 3.62 ± 0.62^ΔΔ U/L
latent period of asthma, After dosing ([2]; after dosing, dexamethasone 0.5 mg/kg, Composition 6 study): 155.78 ± 16.29^ΔΔ
latent period of asthma, After dosing ([2]; after dosing, dexamethasone 0.5 mg/kg, Composition 7 study): 150.46 ± 16.80^ΔΔ
latent period of asthma induced in guinea pigs, after dosing ([2]; after dosing, positive control group, 0.5 mg/kg): 156.77 ± 16.18^ΔΔ
latent period of asthma induced, Before dosing [2, 4]: 77.32 ± 13.95 and 75.63 ± 9.09 and 75.65 ± 9.10
latent period of asthma induced in guinea pigs, before dosing ([2]; before dosing (after modeling), positive control group, 0.5 mg/kg): 74.63 ± 9.04
latent period of asthma, Before dosing [2, 6]: 75.62 ± 9.10
latent period of asthma, Before dosing [2, 7]: 70.68 ± 9.65
EOS content in lung tissues [2, 8]: 30.77 ± 7.21^ΔΔ cells/HP
total IgE in BALF [2, 8]: 3.70 ± 0.73^ΔΔ U/L
total IgE in serum [2, 8]: 3.74 ± 1.32^ΔΔ U/L
EOS content in lung tissues [2, 6]: 30.80 ± 7.23^ΔΔ cells/HP
total IgE in BALF [2, 6]: 3.71 ± 0.70^ΔΔ U/L
total IgE in serum [2, 6]: 3.74 ± 1.30^ΔΔ U/L
EOS content in lung tissues [2, 7]: 31.70 ± 9.52^ΔΔ cells/HP
total IgE in BALF [2, 7]: 3.50 ± 0.78^ΔΔ U/L
total IgE in serum [2, 7]: 3.70 ± 1.26^ΔΔ U/L
EOS content in guinea pigs' lung tissues ([2]; lung tissues, positive control group, 0.5 mg/kg): 30.69 ± 7.35^ΔΔ cells/HP
EOS content in lung tissues [2, 5]: 31.78 ± 7.55^ΔΔ cells/HP and 30.79 ± 7.25^ΔΔ cells/HP
latent period of asthma induced, After dosing [2, 5]: 160.92 ± 19.72^ΔΔ and 155.77 ± 16.28^ΔΔ and 155.78 ± 16.24^ΔΔ
total IgE in BALF [2, 5]: 3.49 ± 0.82^ΔΔ U/L and 3.72 ± 0.72^ΔΔ U/L
total IgE in serum [2, 5]: 3.58 ± 1.19^ΔΔ U/L and 3.75 ± 1.31^ΔΔ U/L
total IgE in serum ([2]; serum, positive control group, 0.5 mg/kg): 3.65 ± 1.21^ΔΔ U/L
latent period of asthma, After dosing ([3]; Composition 6 study): 159.78 ± 20.27^ΔΔ
latent period of asthma, After dosing ([3]; Composition 7 study): 156.30 ± 21.44^ΔΔ
latent period of asthma, After dosing ([3]; Composition 8 study): 159.87 ± 20.38^ΔΔ
latent period of asthma, Before dosing ([3]; Composition 6 study): 74.67 ± 11.10
latent period of asthma, Before dosing ([3]; Composition 7 study): 72.88 ± 10.96
latent period of asthma, Before dosing ([3]; Composition 8 study): 73.66 ± 11.19
EOS content in lung tissues ([3]; Composition 6 study): 28.40 ± 4.25^ΔΔ cells/HP
IFN-γ (serum) ([3]; Composition 6 study): 20.27 ± 4.89^ΔΔ pg/ml
IL-4 (serum) ([3]; Composition 6 study): 13.50 ± 4.32^ΔΔ pg/ml
EOS content in lung tissues ([3]; Composition 7 study): 35.64 ± 6.18^ΔΔ cells/HP
IFN-γ (serum) ([3]; Composition 7 study): 19.29 ± 4.04^ΔΔ pg/ml
IL-4 (serum) ([3]; Composition 7 study): 12.90 ± 4.67^ΔΔ pg/ml
EOS content in lung tissues ([3]; Composition 8 study): 28.39 ± 4.26^ΔΔ cells/HP
IFN-γ (serum) ([3]; Composition 8 study): 20.16 ± 4.96^ΔΔ pg/ml
IL-4 (serum) ([3]; Composition 8 study): 13.41 ± 4.21^ΔΔ pg/ml
